In US9833497B2, “Human originated EGF domain proteins and use of the same” (CHENGDU SOURCEBIO LIMITED-LIABILITY COMPANY, priority 2013, dated 2017):

Assays:
Format in all cases: cell-based
[1] = test system: E. coli DH5α; test: Antibacterial activity: MIC and growth curve against E. coli DH5α in 96-well plate; details: minimal inhibitory concentration against E. coli DH5α; 96-well plate, 5×10^5 CFU/mL, 37° C., judged after 8 h
Description: 1. E. coli DH5α was exemplified. E. coli DH5α was streaked and cultured on LB solid medium. Then, a typical clone was picked and inoculated into common LB liquid medium, cultured at 37° C. with shaking at 185 rpm until the logarithmic growth phase was reached (OD600 of about 0.5). The bacterial culture was centrifuged at 4000×g for 3 min, the supernatant was discarded, and the thalli were resuspended with fresh LB medium.
2. The above-mentioned bacterial suspension was diluted and inoculated into a 96-well plate with the total volume of 100 μL per well and a bacterial count of 5×10^5 CFU/mL.
3. The recombinant protein hF VII-EGF1 was added to the above-mentioned wells with the final protein concentration in the well of the highest protein concentration being 50 μg/mL. Basing on this final concentration, a two-fold serial dilution was performed till a protein concentration gradient consisting of 50, 25, and 12.5 μg/mL was set up. Three parallel wells were set up for each concentration in the gradient.
4. The above-mentioned 96-well plate was placed and cultured at 37° C. in shaking incubator shaking at 175 rpm. Samples were taken every 30 min, the absorbance values were determined at 600 nm wavelength under a ultra violet spectrophotometer, and an inhibition curve was plotted. […] The minimal inhibitory concentration MIC is defined as the lowest concentration of the recombinant protein at which there is no growth of the bacteria.
According to the experimental procedures in Example 14, the minimal inhibitory concentrations (MIC, μg/mL) of the other human-originated EGF domain proteins (PRT2 to PRT1498 in Table 1) for E. coli DH5α were determined.

[2] = test system: E. coli BL21; test: MIC against Gram-negative bacteria: E. coli BL21; details: E. coli BL21; for MIC (μg/mL) E. coli BL21: 96-well plate, 37° C., 10 h; for MIC (μg/mL) E. coli BL21 / MIC against E. coli BL21: 5×10^5 CFU/mL
Description: (§1) 1. Gram-negative bacteria, such as E. coli BL21, Pseudomonas aeruginosa, Klebsiella pneumonia, Enterobacter cloacae, Aeromonas hydrophila, Citrobacter diversus, Moraxella catarrhalis, Proteus mirabilis, Proteus vulgaris, Serratia marcescens, etc were streaked on solid LB medium and cultured respectively. Then, typical clones were picked, inoculated into common liquid LB medium respectively, and cultured at 37° C. with shaking at 185 rpm until the McFarland specific turbidity was 0.5. The bacterial culture of each of Gram-negative bacteria was centrifuged at 4000×g for 3 min, the supernatant was discarded, and the thalli were resuspended with fresh LB medium.
(§2) 2. The above-mentioned bacterial suspensions were diluted and inoculated into 96-well plates with the final concentration of the bacterial suspension being 5×10^5 CFU/mL per well.
(§3) 3. Each of the purified human-originated EGF domain proteins (PRT1 to PRT1498 in Table 1) was added to each of the above wells and subjected to two-fold serial dilution in concentration. Three parallel wells were set up for each concentration in the gradient.
(§4) 4. The above-mentioned 96-well plates were placed and cultured at 37° C. in shaking incubator shaking at 175 rpm. […] The minimal inhibitory concentration MIC is defined as the lowest concentration of the recombinant protein at which there is no growth of the bacteria.

[3] = test system: Pseudomonas aeruginosa; test: MIC against Gram-negative bacteria: Pseudomonas aeruginosa; details: for MIC (μg/mL) P. aeruginosa / MIC against P. aeruginosa: Pseudomonas aeruginosa, 5×10^5 CFU/mL; for MIC (μg/mL) P. aeruginosa: 96-well plate, 37° C., 10 h
Description: as §1, §2, §3, §4

[4] = test system: Klebsiella pneumonia; test: MIC against Gram-negative bacteria: Klebsiella pneumonia; details: for MIC (μg/mL) K. pneumonia / MIC against K. pneumonia: Klebsiella pneumonia, 5×10^5 CFU/mL; for MIC (μg/mL) K. pneumonia: 96-well plate, 37° C., 10 h
Description: as §1, §2, §3, §4

[5] = test system: Enterobacter cloacae; test: MIC against Gram-negative bacteria: Enterobacter cloacae; details: for MIC (μg/mL) E. cloacae / MIC against E. cloacae: Enterobacter cloacae, 5×10^5 CFU/mL; for MIC (μg/mL) E. cloacae: 96-well plate, 37° C., 10 h
Description: as §1, §2, §3, §4

[6] = test system: Aeromonas hydrophila; test: MIC against Gram-negative bacteria: Aeromonas hydrophila; details: for MIC (μg/mL) A. hydrophila / MIC against A. hydrophila: Aeromonas hydrophila, 5×10^5 CFU/mL; for MIC (μg/mL) A. hydrophila: 96-well plate, 37° C., 10 h
Description: as §1, §2, §3, §4

[7] = test system: Citrobacter diversus; test: MIC against Gram-negative bacteria: Citrobacter diversus; details: for MIC (μg/mL) C. diversus / MIC against C. diversus: Citrobacter diversus, 5×10^5 CFU/mL; for MIC (μg/mL) C. diversus: 96-well plate, 37° C., 10 h
Description: as §1, §2, §3, §4

[8] = test system: Moraxella catarrhalis; test: MIC against Gram-negative bacteria: Moraxella catarrhalis; details: for MIC (μg/mL) M. catarrhalis / MIC against M. catarrhalis: Moraxella catarrhalis, 5×10^5 CFU/mL; for MIC (μg/mL) M. catarrhalis: 96-well plate, 37° C., 10 h
Description: as §1, §2, §3, §4

[9] = test system: Proteus mirabilis; test: MIC against Gram-negative bacteria: Proteus mirabilis; details: for MIC (μg/mL) P. mirabilis / MIC against P. mirabilis: Proteus mirabilis, 5×10^5 CFU/mL; for MIC (μg/mL) P. mirabilis: 96-well plate, 37° C., 10 h
Description: as §1, §2, §3, §4

[10] = test system: Proteus vulgaris; test: MIC against Gram-negative bacteria: Proteus vulgaris; details: for MIC (μg/mL) P. vulgaris / MIC against P. vulgaris: Proteus vulgaris, 5×10^5 CFU/mL; for MIC (μg/mL) P. vulgaris: 96-well plate, 37° C., 10 h
Description: as §1, §2, §3, §4

[11] = test system: Serratia marcescens; test: MIC against Gram-negative bacteria: Serratia marcescens; details: for MIC (μg/mL) S. marcescens / MIC against S. marcescens: Serratia marcescens, 5×10^5 CFU/mL; for MIC (μg/mL) S. marcescens: 96-well plate, 37° C., 10 h
Description: as §1, §2, §3, §4

Substance | MIC [1] [µg/mL] | MIC (μg/mL) E. coli BL21 [2] [µg/mL] | MIC (μg/mL) P. aeruginosa [3] [µg/mL] | MIC (μg/mL) K. pneumonia [4] [µg/mL] | MIC (μg/mL) E. cloacae [5] [µg/mL] | MIC (μg/mL) A. hydrophila [6] [µg/mL] | MIC (μg/mL) C. diversus [7] [µg/mL] | MIC (μg/mL) M. catarrhalis [8] [µg/mL] | MIC (μg/mL) P. mirabilis [9] [µg/mL] | MIC (μg/mL) P. vulgaris [10] [µg/mL] | MIC (μg/mL) S. marcescens [11] [µg/mL] | MIC against E. coli BL21 ([2]; 10 h cultivation at 37° C.) [µg/mL] | MIC against P. aeruginosa ([3]; 10 h cultivation at 37° C.) [µg/mL] | MIC against K. pneumonia ([4]; 10 h cultivation at 37° C.) [µg/mL] | MIC against E. cloacae ([5]; 10 h cultivation at 37° C.) [µg/mL] | MIC against A. hydrophila ([6]; 10 h cultivation at 37° C.) [µg/mL] | MIC against C. diversus ([7]; 10 h cultivation at 37° C.) [µg/mL] | MIC against M. catarrhalis ([8]; 10 h cultivation at 37° C.) [µg/mL] | MIC against P. mirabilis ([9]; 10 h cultivation at 37° C.) [µg/mL] | MIC against P. vulgaris ([10]; 10 h cultivation at 37° C.) [µg/mL] | further results
PRT125 (CTGHCAHPRLPCFHGGRCVERYSYYTCDCDLTAFDGPYCN; listed as Homo sapiens) | 100 | 12.5 | 12.5 | 12.5 | 12.5 | 50 | 25 | 12.5 | 25 | 50 | 25 |  |  |  |  |  |  |  |  |  | 
PRT1481 (PVNLCKPSPCMNEGSCVLQNGSYRCKCRDGWEGPHCE; listed as Homo sapiens) | 12.5 |  |  |  |  |  |  |  |  |  |  | 25 | 50 | 12.5 | 50 | 25 | 12.5 | 50 | 12.5 | 50 | MIC against S. marcescens ([11]; 10 h cultivation at 37° C.): 25 µg/mL
PRT930 (NFDDCASNPCIHGICMDGINRYSCVCSPGFTGQRCN; listed as Homo sapiens) | 50 |  |  |  |  |  |  |  |  |  |  |  |  |  |  |  |  |  |  |  | MIC ([2]; 10 h cultivation at 37° C.): 12.5 µg/mL; MIC ([3]; P. aeruginosa, 10 h cultivation at 37° C.): 25 µg/mL; MIC ([4]; K. pneumonia, 10 h cultivation at 37° C.): 50 µg/mL; MIC ([5]; E. cloacae, 10 h cultivation at 37° C.): 12.5 µg/mL; MIC ([6]; A. hydrophila, 10 h cultivation at 37° C.): 25 µg/mL; MIC ([7]; C. diversus, 10 h cultivation at 37° C.): 25 µg/mL; MIC ([8]; M. catarrhalis, 10 h cultivation at 37° C.): 50 µg/mL; MIC ([9]; P. mirabilis, 10 h cultivation at 37° C.): 25 µg/mL; MIC ([10]; P. vulgaris, 10 h cultivation at 37° C.): 12.5 µg/mL; MIC ([11]; S. marcescens, 10 h cultivation at 37° C.): 50 µg/mL
PRT32 (RCEAQKWGPECNHLCTACMNNGVCHEDTGECICPPGFMGRTCE; listed as Homo sapiens) | 12.5 | 50 | 12.5 | 12.5 | 25 | 50 | 12.5 | 50 | 12.5 | 25 | 50 |  |  |  |  |  |  |  |  |  | 
PRT1454 (DVNECFYEELNACSGRELCANLEGSYWCVCHQEAPATSPRKLNLEWEDCP; listed as Homo sapiens) | 25 |  |  |  |  |  |  |  |  |  |  | 12.5 | 12.5 | 25 | 50 | 25 | 12.5 | 50 | 12.5 | 25 | MIC against S. marcescens ([11]; 10 h cultivation at 37° C.): 50 µg/mL
